Results from ChEMBL document CHEMBL1201862, “PubChem BioAssay data set” (2004).
Activity calls are given as the source filed them.

Tests used:
[1] = molecular target: Sphingosine 1-phosphate receptor 2 (Homo sapiens, UniProt O95136); experiment: Dose Response Cell Based Assay for Agonists of the S1P2 Receptor of Purchased Analogues. [Related pubchem assays: 729, 843, 854, 736 ]; type: functional
NS3 = NS3 (Hepatitis C virus, UniProt A3EZJ3); experiment: PubChem AID 2173; design: species or system Hepacivirus hominis
Sequence of NS3 (A3EZJ3 whole entry): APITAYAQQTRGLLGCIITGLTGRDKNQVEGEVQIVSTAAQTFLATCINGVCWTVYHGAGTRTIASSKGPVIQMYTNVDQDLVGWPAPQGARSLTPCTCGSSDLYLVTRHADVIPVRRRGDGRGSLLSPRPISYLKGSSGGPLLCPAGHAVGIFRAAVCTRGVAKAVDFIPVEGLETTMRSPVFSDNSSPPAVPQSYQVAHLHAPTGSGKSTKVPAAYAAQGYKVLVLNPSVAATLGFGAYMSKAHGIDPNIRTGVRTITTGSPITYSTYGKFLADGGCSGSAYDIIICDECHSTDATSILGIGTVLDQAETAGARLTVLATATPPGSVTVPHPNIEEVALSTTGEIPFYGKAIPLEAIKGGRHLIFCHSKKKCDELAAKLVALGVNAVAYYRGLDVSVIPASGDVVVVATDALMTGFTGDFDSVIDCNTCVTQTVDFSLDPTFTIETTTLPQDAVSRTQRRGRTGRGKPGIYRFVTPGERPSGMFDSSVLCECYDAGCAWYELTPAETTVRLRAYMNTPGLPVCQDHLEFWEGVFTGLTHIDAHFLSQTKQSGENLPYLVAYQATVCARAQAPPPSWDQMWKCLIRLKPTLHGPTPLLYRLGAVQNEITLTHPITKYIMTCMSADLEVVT

Large T antigen = Large T antigen (Simian virus 40, UniProt P03070); type: functional, Betapolyomavirus macacae;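 note: Confirmatory-stage PubChem screen for compounds that inhibit SV40 T antigen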
Sequence of Large T antigen (P03070 whole entry): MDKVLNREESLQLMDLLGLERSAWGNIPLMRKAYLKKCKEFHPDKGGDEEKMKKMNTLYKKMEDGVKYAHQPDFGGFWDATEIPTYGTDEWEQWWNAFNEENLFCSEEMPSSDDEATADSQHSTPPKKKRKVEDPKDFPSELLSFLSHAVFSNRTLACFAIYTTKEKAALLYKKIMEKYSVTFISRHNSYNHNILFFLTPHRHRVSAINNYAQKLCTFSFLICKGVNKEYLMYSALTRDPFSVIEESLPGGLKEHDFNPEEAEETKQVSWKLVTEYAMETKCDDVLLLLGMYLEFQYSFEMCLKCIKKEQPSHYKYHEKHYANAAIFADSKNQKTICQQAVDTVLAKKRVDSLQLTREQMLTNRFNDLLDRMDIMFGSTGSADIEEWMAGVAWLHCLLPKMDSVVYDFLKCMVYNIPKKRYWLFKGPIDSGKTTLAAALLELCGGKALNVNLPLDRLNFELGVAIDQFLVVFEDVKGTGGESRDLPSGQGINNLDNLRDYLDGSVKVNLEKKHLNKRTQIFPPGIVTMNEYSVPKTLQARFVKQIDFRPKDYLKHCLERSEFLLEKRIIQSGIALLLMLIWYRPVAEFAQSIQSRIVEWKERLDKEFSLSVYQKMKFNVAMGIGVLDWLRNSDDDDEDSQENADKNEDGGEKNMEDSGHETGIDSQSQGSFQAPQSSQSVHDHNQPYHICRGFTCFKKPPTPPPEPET

Ion channel NompC = Ion channel NompC (Danio rerio, UniProt Q7T1G6); experiment: Fluorescence counterscreen assay for TRPML3 agonists: dose response cell-based high-throughput screening assay to identify agonists of the transient receptor potential channel N1 (TRPN1). [Related pubchem assays: 1526, 1424, 1448 ]; type: functional
Sequence of Ion channel NompC (Q7T1G6 whole entry): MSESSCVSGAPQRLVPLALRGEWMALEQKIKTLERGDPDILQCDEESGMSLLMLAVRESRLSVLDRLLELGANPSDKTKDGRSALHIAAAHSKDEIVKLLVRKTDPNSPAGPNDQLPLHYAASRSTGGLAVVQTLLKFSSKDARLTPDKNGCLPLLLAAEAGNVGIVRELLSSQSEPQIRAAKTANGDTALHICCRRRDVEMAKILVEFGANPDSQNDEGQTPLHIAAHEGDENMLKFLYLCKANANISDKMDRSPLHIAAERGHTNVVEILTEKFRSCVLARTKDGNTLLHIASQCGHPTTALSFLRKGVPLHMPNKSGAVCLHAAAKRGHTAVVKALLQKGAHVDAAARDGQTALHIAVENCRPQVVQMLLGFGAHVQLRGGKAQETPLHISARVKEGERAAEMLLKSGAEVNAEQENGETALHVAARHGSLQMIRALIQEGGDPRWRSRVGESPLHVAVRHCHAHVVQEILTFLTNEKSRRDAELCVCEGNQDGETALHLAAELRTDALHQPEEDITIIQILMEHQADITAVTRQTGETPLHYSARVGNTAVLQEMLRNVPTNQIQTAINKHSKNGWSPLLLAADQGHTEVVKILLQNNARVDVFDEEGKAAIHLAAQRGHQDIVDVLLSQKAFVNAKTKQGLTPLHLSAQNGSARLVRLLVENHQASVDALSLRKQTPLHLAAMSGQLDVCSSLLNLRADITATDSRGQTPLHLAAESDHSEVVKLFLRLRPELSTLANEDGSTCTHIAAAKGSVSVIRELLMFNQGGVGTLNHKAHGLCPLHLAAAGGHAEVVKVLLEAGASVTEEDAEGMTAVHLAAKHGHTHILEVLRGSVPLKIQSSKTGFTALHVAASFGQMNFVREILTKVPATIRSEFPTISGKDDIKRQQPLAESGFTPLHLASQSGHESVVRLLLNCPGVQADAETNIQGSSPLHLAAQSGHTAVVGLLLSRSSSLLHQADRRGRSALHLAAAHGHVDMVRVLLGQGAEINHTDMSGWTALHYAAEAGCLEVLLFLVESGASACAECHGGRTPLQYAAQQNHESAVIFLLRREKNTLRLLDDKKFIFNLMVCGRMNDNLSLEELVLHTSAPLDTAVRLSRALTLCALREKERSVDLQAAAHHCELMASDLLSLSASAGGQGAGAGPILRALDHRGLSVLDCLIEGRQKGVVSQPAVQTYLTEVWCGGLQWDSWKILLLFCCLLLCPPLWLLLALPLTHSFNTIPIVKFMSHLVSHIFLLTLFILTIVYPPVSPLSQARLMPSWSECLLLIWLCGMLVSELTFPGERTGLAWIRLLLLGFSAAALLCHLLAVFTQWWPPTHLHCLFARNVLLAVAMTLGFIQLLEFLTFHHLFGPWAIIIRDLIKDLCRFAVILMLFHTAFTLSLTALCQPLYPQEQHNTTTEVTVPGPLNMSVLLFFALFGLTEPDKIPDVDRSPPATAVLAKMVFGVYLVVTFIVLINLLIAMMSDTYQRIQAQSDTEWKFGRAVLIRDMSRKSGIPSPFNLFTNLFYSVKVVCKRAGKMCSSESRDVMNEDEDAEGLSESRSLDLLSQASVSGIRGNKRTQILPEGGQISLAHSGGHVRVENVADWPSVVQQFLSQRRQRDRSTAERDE

Mucolipin-3 = molecular target: T1, Mucolipin-3 (Homo sapiens, UniProt Q8TDD5); experiment: Dose response cell-based high-throughput screening assay for agonists of the transient receptor potential channel ML3 (TRPML3). [Related pubchem assays: 1526, 1424, 1448 ]; type: functional
T1 sequence (Q8TDD5 whole entry): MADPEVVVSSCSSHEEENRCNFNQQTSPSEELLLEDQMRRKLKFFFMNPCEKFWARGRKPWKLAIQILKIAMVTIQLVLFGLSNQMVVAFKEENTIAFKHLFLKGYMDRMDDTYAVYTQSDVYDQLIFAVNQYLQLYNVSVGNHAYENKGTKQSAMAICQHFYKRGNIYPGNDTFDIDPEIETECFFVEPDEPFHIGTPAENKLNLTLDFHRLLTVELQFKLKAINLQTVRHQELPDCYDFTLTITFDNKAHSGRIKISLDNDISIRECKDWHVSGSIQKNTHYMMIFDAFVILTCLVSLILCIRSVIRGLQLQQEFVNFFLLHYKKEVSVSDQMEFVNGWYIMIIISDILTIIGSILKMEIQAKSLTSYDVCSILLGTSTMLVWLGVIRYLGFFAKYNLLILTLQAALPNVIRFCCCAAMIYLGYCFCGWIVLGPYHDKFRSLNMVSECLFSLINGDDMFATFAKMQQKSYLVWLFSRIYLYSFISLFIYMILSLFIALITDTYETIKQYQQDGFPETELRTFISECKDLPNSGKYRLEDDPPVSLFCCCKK

[2] = molecular target: Mothers against decapentaplegic homolog 3 (Homo sapiens, UniProt P84022); experiment: SMAD3 transcription factor inhibitors, dose response (AID 715); type: functional
Sequence of Mothers against decapentaplegic homolog 3 (P84022 whole entry): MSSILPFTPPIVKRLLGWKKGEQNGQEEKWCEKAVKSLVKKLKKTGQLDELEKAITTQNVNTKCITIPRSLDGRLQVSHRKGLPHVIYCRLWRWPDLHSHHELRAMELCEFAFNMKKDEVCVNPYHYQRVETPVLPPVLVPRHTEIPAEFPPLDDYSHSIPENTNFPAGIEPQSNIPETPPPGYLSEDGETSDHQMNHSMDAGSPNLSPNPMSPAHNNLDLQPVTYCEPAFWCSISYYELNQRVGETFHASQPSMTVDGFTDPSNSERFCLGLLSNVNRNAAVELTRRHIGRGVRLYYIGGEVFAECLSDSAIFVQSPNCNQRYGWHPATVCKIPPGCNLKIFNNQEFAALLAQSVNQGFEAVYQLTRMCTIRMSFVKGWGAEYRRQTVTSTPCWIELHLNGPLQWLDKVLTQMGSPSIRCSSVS

[3] = molecular target: Glyceraldehyde-3-phosphate dehydrogenase (Homo sapiens, UniProt P04406)
Sequence of Glyceraldehyde-3-phosphate dehydrogenase (P04406 whole entry): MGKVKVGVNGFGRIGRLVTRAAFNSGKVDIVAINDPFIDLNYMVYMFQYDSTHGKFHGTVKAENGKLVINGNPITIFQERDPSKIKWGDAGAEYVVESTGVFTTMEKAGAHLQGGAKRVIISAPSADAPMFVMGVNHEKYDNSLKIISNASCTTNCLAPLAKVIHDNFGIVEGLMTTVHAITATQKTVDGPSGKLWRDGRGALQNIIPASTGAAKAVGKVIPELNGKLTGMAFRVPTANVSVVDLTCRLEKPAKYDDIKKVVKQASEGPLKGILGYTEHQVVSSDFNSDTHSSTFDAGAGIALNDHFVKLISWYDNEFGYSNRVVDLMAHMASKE

Bcl-2-related protein A1 [4] = molecular target: T2, Bcl-2-related protein A1 (Mus musculus, UniProt Q07440); experiment: Bfl-1 binding inhibitors, SAR follow-up, biochemical, fluorescence polarization (AID 1070)
T2 sequence (Q07440 whole entry): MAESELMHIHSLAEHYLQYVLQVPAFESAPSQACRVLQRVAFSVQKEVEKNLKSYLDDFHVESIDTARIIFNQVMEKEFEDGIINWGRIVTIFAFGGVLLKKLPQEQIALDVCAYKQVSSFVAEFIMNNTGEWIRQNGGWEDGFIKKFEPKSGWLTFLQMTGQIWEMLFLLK

Bcl-2-related protein A1 [5] = molecular target: T2, Bcl-2-related protein A1; experiment: Bfl-1 inhibitors blocking BH3 peptide binding, confirmation, biochemical, TR-FRET, mouse Bfl-1 (AID 621);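 note: TR-FRET binding of GST-Bfl-1 to FITC-labelled Bid peptide via terbium antibody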

Sequence of Sphingosine 1-phosphate receptor 2 (O95136 whole entry): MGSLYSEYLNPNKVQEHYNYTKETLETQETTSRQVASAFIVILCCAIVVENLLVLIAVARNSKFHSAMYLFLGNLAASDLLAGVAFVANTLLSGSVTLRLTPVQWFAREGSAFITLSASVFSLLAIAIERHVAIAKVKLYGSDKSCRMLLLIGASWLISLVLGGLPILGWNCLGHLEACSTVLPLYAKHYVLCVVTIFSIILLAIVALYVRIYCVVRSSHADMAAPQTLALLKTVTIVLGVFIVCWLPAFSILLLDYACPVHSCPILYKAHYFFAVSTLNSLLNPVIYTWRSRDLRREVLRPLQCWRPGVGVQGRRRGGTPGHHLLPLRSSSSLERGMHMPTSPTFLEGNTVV

Compound: Cc1cc(C(=O)CSc2nc[nH]n2)c(C)n1Cc1ccccc1
- EC50 [1]: > 30 µM (not active)

Compound: O=C1NC(=O)N(c2ccccc2)C(=O)/C1=C\c1ccc([N+](=O)[O-])s1
- IC50 (NS3): 15.7 µM (not active)
- IC50 (Large T antigen): 42.1 µM (active)

Compound: CC(c1ccccc1)C1CC(=O)N(C2CCCCC2)C1=O (centres undefined)
- EC50 (Ion channel NompC): > 29.9 µM (not active)
- EC50 (Mucolipin-3): 4.1 µM (active)
- IC50 [2]: 125 µM (inconclusive)

Compound: O=C1C(Cl)=C(N2CCN(C(c3ccccc3)c3ccc(Cl)cc3)CC2)C(=O)N1c1ccc(Cl)c(Cl)c1 (centres undefined)
- IC50 [3]: > 100 µM (not active)
- IC50 (Bcl-2-related protein A1 [4]): > 100 µM (not active)
- IC50 (Bcl-2-related protein A1 [5]): > 100 µM (not active)
